According to patent US8507536B2, “Gonadotropin-releasing hormone receptor antagonists and methods relating thereto” (Neurocrine Biosciences, Inc., priority 2007, dated 2013):

target: T1, human GnRH receptor (Homo sapiens, UniProt P30968); assay: peptide competitive human receptor binding assays (radioligand displacement); conditions: tested in one or more of the peptide competitive human receptor binding assays
T1 construct: expressed in transfected cells; membrane preparations
T1 sequence (P30968 1-328): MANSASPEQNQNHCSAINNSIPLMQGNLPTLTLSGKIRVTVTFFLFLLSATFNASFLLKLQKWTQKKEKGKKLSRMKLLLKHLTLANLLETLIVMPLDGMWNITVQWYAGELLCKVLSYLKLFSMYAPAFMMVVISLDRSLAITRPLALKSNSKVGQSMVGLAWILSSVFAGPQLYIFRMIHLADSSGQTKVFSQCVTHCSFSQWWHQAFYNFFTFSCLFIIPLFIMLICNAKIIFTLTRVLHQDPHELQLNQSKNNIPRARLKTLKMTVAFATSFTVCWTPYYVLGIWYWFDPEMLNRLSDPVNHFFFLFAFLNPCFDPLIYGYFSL
Protocol: HEK293 cells stably transfected with the human GnRH receptor are grown for two days after achieving confluence then are harvested by striking tissue culture flasks against a firm surface. Cells are collected by centrifugation at 1000 g for […]. Cell pellets are resuspended in 5% sucrose and homogenized using a polytron homogenizer for two 15 second homogenization steps. Cell homogenates are then centrifuged for 5 minutes at 3000 g to remove nuclei and the supernatant subsequently centrifuged for 30 minutes at 44,000 g to collect the membrane fraction. The membrane pellet is resuspended in GnRH binding buffer (10 mM HEPES, pH 7.5, 150 mM NaCl and 0.1% BSA) and aliquots immediately snap-frozen in liquid nitrogen and stored at −80° C. Protein content of the membrane suspension is determined using the Bio-Rad protein assay kit (Bio-Rad).
RBL cells stably transfected with the human GnRH receptor are grown to 80% confluency prior to harvesting. The cells are incubated at 37° C. for 10 min in 0.5 mM EDTA/PBS (Ca^++, Mg^++ free), and are dislodged from the plate by gentle rapping of the flasks. Cells are collected and pelleted by centrifugation at 1000 g for 5 minutes. Cell pellets are resuspended in buffer (DPBS supplemented with 10 mM MgCl2, 2 mM EGTA, pH=7.4), and cell lysis is performed using a pressure cell and applying N2 at a pressure of 900 psi for 30 min at 4° C. Unbroken cells and larger debris were removed by centrifugation at 1200 g for 10 min at 4° C. The cell membrane supernatant is then centrifuged at 45,000 g and the resulting membrane pellet is resuspended in assay buffer and homogenized on ice using a tissue homogenizer. Protein concentrations are determined using the Coomassie Plus Protein Reagent kit. Membranes are aliquoted and stored at −80° C. until ready for use.
Radioligand binding displacement assays using the peptide radioligands are performed in buffer containing 10 mM HEPES, 150 mM NaCl and 0.1% BSA, pH=7.5. Radioligand binding assays employing the use of [^3H]-1-(2,6-difluorobenzyl)-3-[(2R)-amino-2-phenethyl]-5-(2-fluoro-3-methoxyphenyl)-6-methyluracil (here the 3-methoxy group is tritiated) are run in buffer containing 50 mM Tris, 150 mM NaCl, 5 mM MgCl2, 0.01% saponin and 0.5 mM EDTA, pH=7.5. Radioligand displacement assays are performed by incubating radioligand ([^125I-Tyr^5, DLeu^6, NMeLeu^7, Pro^9-NEt]GnRH (0.1 nM), [His^5, ^125I-DTyr^6]GnRH (0.2 nM) (31) or [^3H]-1-(2,6-difluorobenzyl)-3-[(2R)-amino-2-phenethyl]-5-(2-fluoro-3-methoxyphenyl)-6-methyluracil (1 nM)), unlabeled competitors at concentrations ranging from 0.3 pM to 10 μM, and membranes for 2 hrs at rt. 10 to 20 μg protein/well is used from membrane preparations for human, monkey and rabbit GnRH receptor. 5 μg/well and 60 μg/well of membranes are used for rat and dog GnRH receptors, respectively. Binding assays are performed in either Millipore 96-well GF/C filtration plates (for ([^125I-Tyr^5, DLeu^6, NMeLeu^7, Pro^9-NEt]GnRH assays), or in 96 well low binding plates, which are subsequently filtered onto GF/C Unifilters. Filters are pretreated with 0.5% PEI for 30 min prior to use. Reactions are terminated by rapid vacuum filtration, and the filters are washed twice with 250 μL ice cold PBS pH=7.4 (0.01% Tween-20 is included in wash media for [His^5, ^125I-DTyr^6]GnRH and [^3H]-1-(2,6-difluorobenzyl)-3-[(2R)-amino-2-phenethyl]-5-(2-fluoro-3-methoxyphenyl)-6-methyluracil radioligands). The filters are dried, and the Millipore filters are monitored for radioactivity using a Cobra II gamma counter (Perkin Elmer Life Sciences). For assays filtered onto the GF/C Unifilter plates, 50 μL scintillation fluid is added to each filter, and radioactivity is monitored using a TopCount NXT. For iodinated radioligands, total radioligand is monitored on a gamma counter, and for the tritiated radioligand, total radioligand is monitored using a Perkin Elmer 1600TR liquid scintillation counter. […]

| Compound | Ki |
| --- | --- |
| Cc1cc(Cl)ncc1-c1cc(S(=O)(=O)N2CCCCc3ccccc32)ccc1Cl [Example 4-1, 1-[4-chloro-3-(6-chloro-4-methyl-pyridin-3-yl)-benzenesulfonyl]-2,3,4,5-tetrahydro-1H-1-benzazepine] | ≤ 100 nM |
| Cc1cc(Cl)ncc1-c1cc(S(=O)(=O)N2CCCC(=O)c3ccccc32)ccc1Cl [Example 4-2] | ≤ 100 nM |
| Cc1cc(Cl)ncc1-c1cc(S(=O)(=O)N2CCCc3ccccc32)ccc1Cl [Example 4-3] | ≤ 100 nM |
| Cc1cc(Cl)ncc1-c1cc(S(=O)(=O)N2CCOc3ccccc32)ccc1Cl [Example 4-4] | ≤ 100 nM |
| Cc1cc(Cl)ncc1-c1cc(S(=O)(=O)N2CCC(C)(C)c3ccccc32)ccc1Cl [Example 4-5] | ≤ 100 nM |
| Cc1cc(Cl)c(-c2cc(S(=O)(=O)N3CCCc4ccccc43)ccc2Cl)cn1 [Example 4-8] | ≤ 100 nM |
| Cc1cc(C(F)(F)F)ncc1-c1cc(S(=O)(=O)N2CCCCc3ccccc32)ccc1Cl [Example 4-9] | ≤ 100 nM |
| Cc1cc(C(F)(F)F)ncc1-c1cc(S(=O)(=O)N2CCCc3ccccc32)ccc1Cl [Example 4-10] | ≤ 100 nM |
| Cc1cc(C(F)(F)F)ncc1-c1cc(S(=O)(=O)N2CCOc3ccccc32)ccc1Cl [Example 4-11] | ≤ 100 nM |
| N#Cc1cc(C(F)(F)F)ncc1-c1cc(S(=O)(=O)N2CCCCc3ccccc32)ccc1Cl [Example 4-13] | ≤ 100 nM |
| Cc1cccc2c1N(S(=O)(=O)c1ccc(Cl)c(-c3cnc(C(F)(F)F)cc3C#N)c1)CCC2 [Example 4-14] | ≤ 100 nM |
| N#Cc1cc(C(F)(F)F)ncc1-c1cc(S(=O)(=O)N2CCOc3ccccc32)ccc1Cl [Example 4-15] | ≤ 100 nM |
| CC1(C)CCN(S(=O)(=O)c2ccc(Cl)c(-c3cnc(C(F)(F)F)cc3C#N)c2)c2ccccc21 [Example 4-16] | ≤ 100 nM |
| N#Cc1cc(C(F)(F)F)ncc1-c1cc(S(=O)(=O)N2CCOCc3ccccc32)ccc1Cl [Example 4-17] | ≤ 100 nM |
| N#Cc1cc2ccccc2nc1-c1cc(S(=O)(=O)N2CCCCc3ccccc32)ccc1Cl [Example 4-18] | ≤ 100 nM |
| CC1(C)CCN(S(=O)(=O)c2ccc(Cl)c(-c3nc4ccccc4cc3C#N)c2)c2ccccc21 [Example 4-19] | ≤ 100 nM |
| Cc1cccc2c1N(S(=O)(=O)c1ccc(Cl)c(-c3cnc(C(F)(F)F)cc3C#N)c1)CCCO2 [Example 4-20] | ≤ 100 nM |
| Cc1cc(Cl)ncc1-c1cc(S(=O)(=O)N2CCCOc3ccccc32)ccc1Cl [Example 4-23] | ≤ 100 nM |
| N#Cc1cc(C(F)(F)F)ncc1-c1cc(S(=O)(=O)N2CCCOc3ccccc32)ccc1Cl [Example 4-24] | ≤ 100 nM |
| O=S(=O)(c1ccc(Cl)c(-c2cnc(Cl)cc2Cl)c1)N1CCCCc2ccccc21 [Example 5-1, 1-[4-Chloro-3-(4,6-dichloro-pyridin-3-yl)-benzenesulfonyl]-2,3,4,5-tetrahydro-1H-1-benzazepine] | ≤ 100 nM |

| Compound | Ki |
| --- | --- |
| COc1ccccc1N(C)S(=O)(=O)c1ccc(Cl)c(-c2cnc(Cl)cc2Cl)c1 [Example 5-2] | ≤ 100 nM |
| O=S(=O)(c1ccc(Cl)c(-c2cnc(Cl)cc2Cl)c1)N1CCCc2ccccc21 [Example 5-3] | ≤ 100 nM |
| O=S(=O)(c1ccc(Cl)c(-c2cnc(Cl)cc2Cl)c1)N1CCOc2ccccc21 [Example 5-4] | ≤ 100 nM |
| CC1(C)CCN(S(=O)(=O)c2ccc(Cl)c(-c3cnc(Cl)cc3Cl)c2)c2ccccc21 [Example 5-5] | ≤ 100 nM |
| CC1CCc2ccccc2N1S(=O)(=O)c1ccc(Cl)c(-c2cnc(Cl)cc2Cl)c1 (stereo not drawn) [Example 5-6] | ≤ 100 nM |
| CC(C)(C)OC(=O)CCCOc1cc(Cl)c(-c2cnc(C(F)(F)F)cc2C#N)cc1S(=O)(=O)N1CCCCc2ccccc21 [Example 6-1, 4-[5-chloro-4-(4-cyano-6-trifluoromethyl-pyridin-3-yl)-2-(2,3,4,5-tetrahydro-benzo[b]azepine-1-sulfonyl)-phenoxy]-butyric acid tert-butyl ester] | ≤ 100 nM |
| CC(C)(C)OC(=O)COc1cc(Cl)c(-c2cnc(C(F)(F)F)cc2C#N)cc1S(=O)(=O)N1CCCCc2ccccc21 [Example 6-5] | ≤ 100 nM |
| N#Cc1cc(C(F)(F)F)ncc1-c1cc(S(=O)(=O)N2CCCCc3ccccc32)c(OCCCC(=O)O)cc1Cl [Example 7-1, 4-[5-chloro-4-(4-cyano-6-trifluoromethyl-pyridin-3-yl)-2-(2,3,4,5-tetrahydro-benzo[b]azepine-1-sulfonyl)-phenoxy]-butyric acid] | ≤ 100 nM |
| Cc1cc(C(F)(F)F)ncc1-c1cc(S(=O)(=O)N2CCCCc3ccccc32)c(OCCCC(=O)O)cc1Cl [Example 7-2] | ≤ 100 nM |
| Cc1cc(C#N)ncc1-c1cc(S(=O)(=O)N2CCCCc3ccccc32)c(OCCCC(=O)O)cc1Cl [Example 7-3] | ≤ 100 nM |
| N#Cc1cc2ccccc2nc1-c1cc(S(=O)(=O)N2CCCCc3ccccc32)c(OCCCC(=O)O)cc1Cl [Example 7-4] | ≤ 100 nM |
| N#Cc1cc(C(F)(F)F)ncc1-c1cc(S(=O)(=O)N2CCCCc3ccccc32)c(OCC(=O)O)cc1Cl [Example 7-5] | ≤ 100 nM |
| N#Cc1cc(C(F)(F)F)ncc1-c1cc(S(=O)(=O)N2CCCCc3ccccc32)c(O)cc1Cl [Example 8-2] | ≤ 100 nM |
| N#Cc1cc2ccccc2nc1-c1cc(S(=O)(=O)N2CCCCc3ccccc32)c(O)cc1Cl [Example 8-3] | ≤ 100 nM |
| Cc1cc(C#N)ncc1-c1cc(S(=O)(=O)N2CCCCc3ccccc32)c(OCCCO)cc1Cl [Example 9-1, 5-[2-chloro-4-(3-hydroxy-propoxy)-5-(2,3,4,5-tetrahydro-benzo[b]azepine-1-sulfonyl)-phenyl]-4-methyl-pyridine-2-carbonitrile] | ≤ 100 nM |
| N#Cc1cc(C(F)(F)F)ncc1-c1cc(S(=O)(=O)N2CCCCc3ccccc32)c(OCCCO)cc1Cl [Example 9-2, 5-[2-Chloro-4-(3-hydroxy-propoxy)-5-(2,3,4,5-tetrahydro-benzo[b]azepine-1-sulfonyl)-phenyl]-2-trifluoromethyl-isonicotinonitrile] | ≤ 100 nM |
| Cc1cc(C#N)ncc1-c1cc(S(=O)(=O)N2CCCCc3ccccc32)c(OCCC(=O)O)cc1Cl [Example 10-1, 3-[5-chloro-4-(6-cyano-4-methyl-pyridin-3-yl)-2-(2,3,4,5-tetrahydro-benzo[b]azepine-1-sulfonyl)-phenoxy]-propionic acid] | ≤ 100 nM |
| N#Cc1cc(C(F)(F)F)ncc1-c1cc(S(=O)(=O)N2CCCCc3ccccc32)c(OCCC(=O)O)cc1Cl [Example 10-2, 3-[5-chloro-4-(4-cyano-6-trifluoromethyl-pyridin-3-yl)-2-(2,3,4,5-tetrahydro-benzo[b]azepine-1-sulfonyl)-phenoxy]-propionic acid] | ≤ 100 nM |
| CC1(C)CCN(S(=O)(=O)c2cc(-c3cnc(C(F)(F)F)cc3C#N)c(Cl)cc2OCCCCO)c2ccccc21 [Example 11-1, 5-[2-chloro-5-(4,4-dimethyl-3,4-dihydro-2H-quinoline-1-sulfonyl)-4-(4-hydroxy-butoxy)-phenyl]-2-trifluoromethyl-isonicotinonitrile] | ≤ 100 nM |
